# Source: the NIST ThermoML archive (doi:10.1021/acs.jced.8b00425)
# ± gives the expanded uncertainty stated by the source.
# Experiments:
# [1] = Crystal; DSC
# [2] = Molar enthalpy of transition or fusion; details: Crystal; DSC
compound,measurement,setting,value
"O=c1[nH]cc(F)c(=O)[nH]1 [5-fluoro-2,4(1H,3H)-pyrimidinedione]",Triple point temperature,[1],555.66 ± 0.88 K
same,Molar enthalpy of transition or fusion,[2],6.88 ± 0.177 kcal/mol
